PubChem BioAssay (NCI)
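These data come from cells grown in 96-well plates and exposed to compound for 48 hours at five concentrations. GI50: concentration for 50% inhibition of growth. TGI is the concentration that stops growth completely.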

System: LOX IMVI melanoma
Experiment: NCI tumour cell line growth inhibition, 48 h

| SMILES | TGI [µM] | GI50 [µM] |
| --- | --- | --- |
| CC1=C(N2CC2)C(=O)c2ccccc2C1=O | 4.98 | – |
| O=S1(=O)c2ccccc2N=C(c2ccccc2Cl)CC1c1ccc(F)cc1 (configuration not stated) | 34.2 | – |
| CC1=CC(=O)NP(=O)(C23CC4CC(CC(C4)C2)C3)N1 (configuration not stated) | > 100 | – |
| Oc1ccc(Cl)cc1/C=N\NC(=S)N/N=C/c1cc(Cl)ccc1O | > 100 | 1.65 |
| O=c1[nH]cc(C(F)(C(F)(F)F)C(F)(F)F)c(=O)[nH]1 | > 100 | – |
| COc1ccc2c(c1)c1c3n2CCNN=C3CCC1 | > 100 | – |
| CC(=O)[C-](C(C)=O)c1ccccc1.CC(=O)[C-](C(C)=O)c1ccccc1.CC(=O)[C-](C(C)=O)c1ccccc1.[Cl-].[Zr+4] | > 100 | > 100 |
| CC(C)N1C(C)[C@@H](c2ccccc2)O[P@]1(=O)CC1=CCCCC1 (some centres not stated) | > 100 | – |
| COC(=O)C(=O)C(C(=O)C(=O)Nc1cc(Cl)c(Cl)cc1Cl)c1nc2ccc([N+](=O)[O-])cc2[nH]c1=O (configuration not stated) | > 100 | – |
| COc1ccc(NC(=O)C2C(=O)N(c3ccc(OC)cc3)C(=O)/C2=N\NC(N)=O)cc1 (configuration not stated) | > 100 | – |
| C/C(=N\NS(=O)(=O)c1ccc([N+](=O)[O-])cc1)c1ccc[n+]([O-])n1 | 2.15 | – |
| S=c1c2ccccc2c(=S)n2n1CC=CC2 | > 100 | – |
| CC(C)(C)Sc1nnc(SC(C)(C)C)c2c(=O)[nH]nc(SC(C)(C)C)c12 | 24.2 | – |
| CCCCNC1=C(C(=O)OCC)/C(=N/NC(=O)c2ccccc2O)CO1 | > 100 | – |
| N#CC(C(=O)CCCC(=O)Nc1ccc(Cl)cc1Cl)c1ccc(Cl)cc1 (configuration not stated) | > 100 | – |
| O=CCCCC(Sc1ccccc1)Sc1ccccc1 | 26.6 | – |
| Nc1ccn(C2OC(C(OC3OC(CO)C(O)C(N)C3O)C(O)C(O)C(O)C(O)CO)C(N)C(O)C2O)c(=O)n1 (configuration not stated) | > 100 | – |

| SMILES | TGI [µM] | GI50 [µM] |
| --- | --- | --- |
| COc1ccc(C)cc1C1CCC(=O)O1 (configuration not stated) | > 100 | – |
| Cc1ccc2nc(NC(=O)C(=O)CC(=O)c3cccc4ccccc34)sc2c1 | > 100 | – |
| O=C1CCC(=O)c2sccc2N1 | > 100 | – |
| O=C(c1ccc2ccccc2c1)c1c(C(F)(F)F)n([O-])c2ccc(F)cc2[n+]1=O | 1.66 | 0.394 |
| COc1ccc2c(c1)/C(=N/OC(C)=O)c1c-2cnc2ccccc12 | 38.6 | 19 |
| Cn1nc(-c2ccccc2)c(C(=O)/C=C/c2ccc(Cl)cc2)c(N2CCCC2)c1=O | 39.2 | – |
| Cc1cc2nc(-c3c(F)cccc3Cl)n(Cc3c(F)cccc3Cl)c2cc1C | 30.2 | 13.5 |
| O=C1C=Cc2ncccc2C1=O | 26.9 | – |
| C/C(CC(=O)Nc1cccc([N+](=O)[O-])c1)=N\NC(=O)CC#N | > 100 | – |
| [CH3][Sn]1([CH3])[O]CC(COc2cc(Cl)c(Cl)cc2Cl)[O]1 (configuration not stated) | > 100 | > 100 |
| O=C(/C=C/c1ccccc1)CCC1C(=O)NC(=S)NC1=O | > 100 | – |
| CCc1cc(Cc2ccc(C)c(NC(=O)C(=O)C3C(=O)NC(=O)NC3=O)c2CC)cc(C)c1NC(=O)C(=O)C1C(=O)NC(=O)NC1=O | > 100 | – |
| CC(=O)c1c2c(cc3c1CC1(C3)Cc3cc4c(c(C(=O)O)c3C1)CCC4)CCC2 (configuration not stated) | > 100 | – |
| Cc1ccc(/C=N/NS(=O)(=O)c2ccccc2)c(C)c1 | > 100 | – |
| C#CCOCn1cnc2ncnc(N)c21 | > 100 | – |
| Cc1noc(/N=C2\C=C(Nc3onc(C)c3C)C(=O)c3ccccc32)c1C | > 100 | – |

System: HT29 colon
Experiment: NCI tumour cell line growth inhibition, 48 h

| SMILES | TGI [µM] | GI50 [µM] |
| --- | --- | --- |
| CC1=C(N2CC2)C(=O)c2ccccc2C1=O | 3.07 | – |
| CCN(CC)Cc1cc(Nc2c3ccccc3nc3cc(Cl)ccc23)ccc1O | 1.75 | 0.487 |
| CC1=CC(=O)NP(=O)(C23CC4CC(CC(C4)C2)C3)N1 (configuration not stated) | > 100 | – |
| Oc1ccc(Cl)cc1/C=N\NC(=S)N/N=C/c1cc(Cl)ccc1O | 54.4 | 5.13 |
| O=c1[nH]cc(C(F)(C(F)(F)F)C(F)(F)F)c(=O)[nH]1 | > 100 | – |
| COc1ccc2c(c1)c1c3n2CCNN=C3CCC1 | > 100 | – |
| CC(=O)[C-](C(C)=O)c1ccccc1.CC(=O)[C-](C(C)=O)c1ccccc1.CC(=O)[C-](C(C)=O)c1ccccc1.[Cl-].[Zr+4] | > 100 | > 100 |
| CC(C)N1C(C)[C@@H](c2ccccc2)O[P@]1(=O)CC1=CCCCC1 (some centres not stated) | > 100 | – |
| COc1ccc(C2=Nc3c/c(=C\c4c(O)[nH]c5cc(Cl)ccc45)ccc3=N2)cc1 | 11.4 | 3.06 |
| CN=C(N)N/N=C(\C)c1ccc2c(c1)Cc1ccccc1-2 | 3.39 | 1.61 |
| COc1ccc(NC(=O)C2C(=O)N(c3ccc(OC)cc3)C(=O)/C2=N\NC(N)=O)cc1 (configuration not stated) | > 100 | – |
| C/C(=N\NS(=O)(=O)c1ccc([N+](=O)[O-])cc1)c1ccc[n+]([O-])n1 | 3.98 | – |
| S=c1c2ccccc2c(=S)n2n1CC=CC2 | > 100 | – |
| CC(C)(C)Sc1nnc(SC(C)(C)C)c2c(=O)[nH]nc(SC(C)(C)C)c12 | 19.1 | – |
| N#CC(C(=O)CCCC(=O)Nc1ccc(Cl)cc1Cl)c1ccc(Cl)cc1 (configuration not stated) | > 100 | – |
| Nc1ccn(C2OC(C(OC3OC(CO)C(O)C(N)C3O)C(O)C(O)C(O)C(O)CO)C(N)C(O)C2O)c(=O)n1 (configuration not stated) | > 100 | – |
| COc1ccc(C)cc1C1CCC(=O)O1 (configuration not stated) | > 100 | – |

| SMILES | TGI [µM] | GI50 [µM] |
| --- | --- | --- |
| Cc1ccc2nc(NC(=O)C(=O)CC(=O)c3cccc4ccccc34)sc2c1 | > 100 | – |
| O=C1CCC(=O)c2sccc2N1 | > 100 | – |
| O=C(c1ccc2ccccc2c1)c1c(C(F)(F)F)n([O-])c2ccc(F)cc2[n+]1=O | 3.02 | 1.36 |
| CC(C(N)=O)N(C)C(=O)c1cnc2ccccc2c1 (configuration not stated) | > 100 | – |
| CCCCCCCCCCCCCCCCCC(=O)NCC(COP(=O)(O)O)OCC (configuration not stated) | > 100 | – |
| COc1ccc2c(c1)/C(=N/OC(C)=O)c1c-2cnc2ccccc12 | > 100 | 43.1 |
| Cn1nc(-c2ccccc2)c(C(=O)/C=C/c2ccc(Cl)cc2)c(N2CCCC2)c1=O | 15.3 | – |
| Cc1cc2nc(-c3c(F)cccc3Cl)n(Cc3c(F)cccc3Cl)c2cc1C | > 100 | 10.5 |
| O=C1C=Cc2ncccc2C1=O | 43.4 | – |
| C/C(CC(=O)Nc1cccc([N+](=O)[O-])c1)=N\NC(=O)CC#N | > 100 | – |
| [CH3][Sn]1([CH3])[O]CC(COc2cc(Cl)c(Cl)cc2Cl)[O]1 (configuration not stated) | > 100 | > 100 |
| CC(=O)c1c2c(cc3c1CC1(C3)Cc3cc4c(c(C(=O)O)c3C1)CCC4)CCC2 (configuration not stated) | > 100 | – |
| C/C(=N/O)c1ccc(Nc2cc(-n3ccnc3)c3ccccc3n2)cc1 | > 100 | 8.34 |
| Cc1ccc(/C=N/NS(=O)(=O)c2ccccc2)c(C)c1 | > 100 | – |
| C#CCOCn1cnc2ncnc(N)c21 | > 100 | – |
| Cc1noc(/N=C2\C=C(Nc3onc(C)c3C)C(=O)c3ccccc32)c1C | > 100 | – |

System: NCI-H226 lung
Experiment: NCI tumour cell line growth inhibition, 48 h

| SMILES | TGI [µM] | GI50 [µM] |
| --- | --- | --- |
| CC1=C(N2CC2)C(=O)c2ccccc2C1=O | 6.21 | – |
| CCN(CC)Cc1cc(Nc2c3ccccc3nc3cc(Cl)ccc23)ccc1O | 3.23 | 1.66 |
| CC1=CC(=O)NP(=O)(C23CC4CC(CC(C4)C2)C3)N1 (configuration not stated) | > 100 | – |
| Oc1ccc(Cl)cc1/C=N\NC(=S)N/N=C/c1cc(Cl)ccc1O | 14.1 | 2.34 |
| O=c1[nH]cc(C(F)(C(F)(F)F)C(F)(F)F)c(=O)[nH]1 | > 100 | – |
| COc1ccc2c(c1)c1c3n2CCNN=C3CCC1 | > 100 | – |
| CC(=O)[C-](C(C)=O)c1ccccc1.CC(=O)[C-](C(C)=O)c1ccccc1.CC(=O)[C-](C(C)=O)c1ccccc1.[Cl-].[Zr+4] | > 100 | > 100 |
| CC(C)N1C(C)[C@@H](c2ccccc2)O[P@]1(=O)CC1=CCCCC1 (some centres not stated) | > 100 | – |
| COc1ccc(C2=Nc3c/c(=C\c4c(O)[nH]c5cc(Cl)ccc45)ccc3=N2)cc1 | > 100 | > 100 |
| COC(=O)C(=O)C(C(=O)C(=O)Nc1cc(Cl)c(Cl)cc1Cl)c1nc2ccc([N+](=O)[O-])cc2[nH]c1=O (configuration not stated) | > 100 | – |
| COc1ccc(NC(=O)C2C(=O)N(c3ccc(OC)cc3)C(=O)/C2=N\NC(N)=O)cc1 (configuration not stated) | 51.7 | – |
| C/C(=N\NS(=O)(=O)c1ccc([N+](=O)[O-])cc1)c1ccc[n+]([O-])n1 | 3.91 | – |
| S=c1c2ccccc2c(=S)n2n1CC=CC2 | > 100 | – |
| CC(C)(C)Sc1nnc(SC(C)(C)C)c2c(=O)[nH]nc(SC(C)(C)C)c12 | 28.5 | – |
| CCCCNC1=C(C(=O)OCC)/C(=N/NC(=O)c2ccccc2O)CO1 | > 100 | – |
| N#CC(C(=O)CCCC(=O)Nc1ccc(Cl)cc1Cl)c1ccc(Cl)cc1 (configuration not stated) | > 100 | – |
| COc1ccc(C)cc1C1CCC(=O)O1 (configuration not stated) | > 100 | – |
| Cc1ccc2nc(NC(=O)C(=O)CC(=O)c3cccc4ccccc34)sc2c1 | > 100 | – |
| O=C1CCC(=O)c2sccc2N1 | > 100 | – |
| O=C(c1ccc2ccccc2c1)c1c(C(F)(F)F)n([O-])c2ccc(F)cc2[n+]1=O | 3.97 | 1.96 |
